Test results reported in US5596002A, “Method of treating chloroquine-resistant malaria with aminoquinoline derivatives” (Hoffmann-La Roche Inc., priority 1993, dated 1997).
Values after ≈ are worked out from the molar mass of the structure shown.

Assays:
Type in all cases: cell-based
[1] = test system: Plasmodium falciparum, chloroquine-sensitive strain NF54; experiment: activity against P. falciparum in vitro, strain NF54; conditions: Plasmodium falciparum; chloroquine-sensitive strain NF54; 48 h-72 h; read-out: IC50 (50% growth inhibition)
Experimental: (§1) Test method for the determination of the activity against P. falciparum in vitro
(§2) The preparations of the present invention were tested on intraerythrocytary stages of P. falciparum from asynchronous cultures according to the method of Desjardin et al. (Desjardins, R. E. et al: Quantitative assessment of antimalarial activity in vitro by a semiautomated microdilution technique. Antimicrob. Agents Chemother. 16, 710-718, (1979)).
(§3) The culture medium consisted of RPMI 1640 with the addition of 25 mM HEPES, 25 mM NaHCO3, […] neomycin and 10% human serum (A^+). Human-A^+ erythrocytes were used as the P. falciparum host cells. The parasites were maintained at 37° C. in an atmosphere of 3% O2, 4% CO2, 93% N2 and at 95% relative humidity.
(§4) In order to determine the activity, the preparations were dissolved in DMSO, pre-diluted in the culture medium to a suitable starting concentration and subsequently titrated-out into microtitre plates in the 2nd stage over 6-7 steps. After the addition of the parasite culture (0.7% parasitemia in 2.5% erythrocyte suspension), the test plates were incubated under the conditions given above for 48 h-72 h. The parasite growth in the different preparation concentrations was determined using [G-^3 H]-hypoxanthin incorporation compared to untreated control cultures on the same test plates. The 50% growth inhibition (IC50) was calculated according to logit regression analysis from the resulting dosage-activity curve.
(§5) The preparations were tested on at least one chloroquine-resistant and one chloroquine-sensitive P. falciparum strain. Additional sensitive and resistant strains were also included for further characterization.
(§6) Table 1 below contains the IC50 values measured in vitro for the growth inhibition of chloroquine-sensitive and chloroquine-resistant strains of the human pathogenic Plasmodium falciparum.

[2] = test system: Plasmodium falciparum, chloroquine-sensitive strain FCH5C2; experiment: activity against P. falciparum in vitro, strain FCH5C2; conditions: chloroquine-sensitive strain FCH5C2, 48 h-72 h, read-out: IC50 (50% growth inhibition)
Experimental: as §1, §2, §3, §4, §5, §6

[3] = test system: Plasmodium falciparum, chloroquine-sensitive strain HB3; experiment: activity against P. falciparum in vitro, strain HB3; conditions: chloroquine-sensitive strain HB3, 48 h-72 h, read-out: IC50 (50% growth inhibition)
Experimental: as §1, §2, §3, §4, §5, §6

[4] = test system: Plasmodium falciparum, chloroquine-sensitive strain RFMEF3; experiment: activity against P. falciparum in vitro, strain RFMEF3; conditions: chloroquine-sensitive strain RFMEF3, 48 h-72 h, read-out: IC50 (50% growth inhibition)
Experimental: as §1, §2, §3, §4, §5, §6

[5] = test system: Plasmodium falciparum, chloroquine-sensitive strain Ro7 3; experiment: activity against P. falciparum in vitro, strain Ro7 3; conditions: chloroquine-sensitive strain Ro7 3, 48 h-72 h, read-out: IC50 (50% growth inhibition)
Experimental: as §1, §2, §3, §4, §5, §6

[6] = test system: Plasmodium falciparum, chloroquine-resistant strain RFCR3; experiment: activity against P. falciparum in vitro, strain RFCR3; conditions: chloroquine-resistant strain RFCR3, 48 h-72 h, read-out: IC50 (50% growth inhibition)
Experimental: as §1, §2, §3, §4, §5, §6

[7] = test system: Plasmodium falciparum, chloroquine-resistant strain ItG2 F6; experiment: activity against P. falciparum in vitro, strain ItG2 F6; conditions: chloroquine-resistant strain ItG2 F6, 48 h-72 h, read-out: IC50 (50% growth inhibition)
Experimental: as §1, §2, §3, §4, §5, §6

[8] = test system: Plasmodium falciparum, chloroquine-resistant strain Indo; experiment: activity against P. falciparum in vitro, strain Indo; conditions: chloroquine-resistant strain Indo, 48 h-72 h, read-out: IC50 (50% growth inhibition)
Experimental: as §1, §2, §3, §4, §5, §6

[9] = test system: Plasmodium falciparum, chloroquine-resistant strain K1; experiment: activity against P. falciparum in vitro, strain K1; conditions: Plasmodium falciparum; chloroquine-resistant strain K1; 48 h-72 h; read-out: IC50 (50% growth inhibition)
Experimental: as §1, §2, §3, §4, §5, §6

[10] = test system: Plasmodium falciparum, chloroquine-resistant strain W2; experiment: activity against P. falciparum in vitro, strain W2; conditions: chloroquine-resistant strain W2, 48 h-72 h, read-out: IC50 (50% growth inhibition)
Experimental: as §1, §2, §3, §4, §5, §6

[11] = test system: Plasmodium falciparum, chloroquine-resistant strain 7G8; experiment: activity against P. falciparum in vitro, strain 7G8; conditions: chloroquine-resistant strain 7G8, 48 h-72 h, read-out: IC50 (50% growth inhibition)
Experimental: as §1, §2, §3, §4, §5, §6

[12] = test system: Plasmodium falciparum, chloroquine-resistant strain W2 Mef; experiment: activity against P. falciparum in vitro, strain W2 Mef; conditions: 48 h-72 h, read-out: IC50 (50% growth inhibition)
Experimental: as §1, §2, §3, §4, §5, §6

Row | SMILES | IC50 [1] [ng/mL] | IC50 [2] [ng/mL] | IC50 [3] [ng/mL] | IC50 [4] [ng/mL] | IC50 [5] [ng/mL] | IC50 [6] [ng/mL] | IC50 [7] [ng/mL] | IC50 [8] [ng/mL] | IC50 [9] [ng/mL] | IC50 [10] [ng/mL] | IC50 [11] [ng/mL] | IC50 [12] [ng/mL]
1 | CC(CN1CCCC1)Nc1ccnc2cc(Cl)ccc12 (racemic) [Example 3, (RS)-(7-Chloro-quinolin-4-yl)-(1-methyl-2-pyrrolidin-1-yl-ethyl)-amine] | 7 (≈ 0.0242 µM) | 7 (≈ 0.0242 µM) | 5 (≈ 0.0173 µM) | 7 (≈ 0.0242 µM) | 4 (≈ 0.0138 µM) | 8 (≈ 0.0276 µM) | 5 (≈ 0.0173 µM) | 6 (≈ 0.0207 µM) | 12 (≈ 0.0414 µM) | 7 (≈ 0.0242 µM) | 7 (≈ 0.0242 µM) | 11 (≈ 0.038 µM)
2 | CC(CN1CCCCC1)Nc1ccnc2cc(Cl)ccc12 (racemic) [Example 4, (RS)-(7-Chloro-quinolin-4-yl)-(1-methyl-2-piperidin-1-yl-ethyl)-amine] | 7 (≈ 0.023 µM) | 8 (≈ 0.0263 µM) | 8 (≈ 0.0263 µM) | 7 (≈ 0.023 µM) | 4 (≈ 0.0132 µM) | 9 (≈ 0.0296 µM) | 5 (≈ 0.0165 µM) | 8 (≈ 0.0263 µM) | 15 (≈ 0.0494 µM) | 15 (≈ 0.0494 µM) | 7 (≈ 0.023 µM) | 14 (≈ 0.0461 µM)
3 | CC1CCCN(CCNc2ccnc3cc(Cl)ccc23)C1 (racemic) [Example 23, (RS)-(7-Chloro-quinolin-4-yl)-[2-(3-methyl-piperidin-1-yl)-ethyl]-amine] | 6 (≈ 0.0197 µM) | 6 (≈ 0.0197 µM) | 7 (≈ 0.023 µM) | 7 (≈ 0.023 µM) | 4 (≈ 0.0132 µM) | 10 (≈ 0.0329 µM) | 6 (≈ 0.0197 µM) | 8 (≈ 0.0263 µM) | 15 (≈ 0.0494 µM) | 15 (≈ 0.0494 µM) | 8 (≈ 0.0263 µM) | 13 (≈ 0.0428 µM)
4 | CC1CCCCN1CCNc1ccnc2cc(Cl)ccc12 (racemic) [Example 26, (RS)-(7-Chloro-quinolin-4-yl)-[2-(2-methyl-piperidin-1-yl) -ethyl]-amine] | 7 (≈ 0.023 µM) | 8 (≈ 0.0263 µM) | 8 (≈ 0.0263 µM) | 9 (≈ 0.0296 µM) | 5 (≈ 0.0165 µM) | 8 (≈ 0.0263 µM) | 6 (≈ 0.0197 µM) | 9 (≈ 0.0296 µM) | 15 (≈ 0.0494 µM) | 15 (≈ 0.0494 µM) | 8 (≈ 0.0263 µM) | 13 (≈ 0.0428 µM)
5 | CCC1CCCCN1CCNc1ccnc2cc(Cl)ccc12 (racemic) [Example 27, (RS)-(7-Chloro-quinolin-4-yl)-[2-(2-ethyl-piperidin-1-yl)-ethyl]amine] | 8 (≈ 0.0252 µM) | 10 (≈ 0.0315 µM) | 9 (≈ 0.0283 µM) | 7 (≈ 0.022 µM) | 3 (≈ 0.00944 µM) | 15 (≈ 0.0472 µM) | 7 (≈ 0.022 µM) | 9 (≈ 0.0283 µM) | 18 (≈ 0.0566 µM) | 19 (≈ 0.0598 µM) | 7 (≈ 0.022 µM) | 14 (≈ 0.044 µM)
6 | Clc1ccc2c(NCCN3CCCCC3)ccnc2c1 [Example 8, (7-Chloro-quinolin-4-yl)-(2-piperidin-1-yl-ethyl)-amine] | 5 (≈ 0.0173 µM) | 9 (≈ 0.0311 µM) | 7 (≈ 0.0242 µM) | 9 (≈ 0.0311 µM) | 4 (≈ 0.0138 µM) | 10 (≈ 0.0345 µM) | 4 (≈ 0.0138 µM) | 5 (≈ 0.0173 µM) | 11 (≈ 0.038 µM) | 11 (≈ 0.038 µM) | 7 (≈ 0.0242 µM) | 9 (≈ 0.0311 µM)
7 | CCN1CCCC1CNc1ccnc2cc(Cl)ccc12 (stereo not drawn) [Example 12, (7-Chloro-quinolin-4-yl)-(1-ethyl-pyrrolidin-2-yl-methyl)-amine] | 6 (≈ 0.0207 µM) | 9 (≈ 0.0311 µM) | 7 (≈ 0.0242 µM) | 8 (≈ 0.0276 µM) | 7 (≈ 0.0242 µM) | 15 (≈ 0.0518 µM) | 8 (≈ 0.0276 µM) | 12 (≈ 0.0414 µM) | 10 (≈ 0.0345 µM) | 15 (≈ 0.0518 µM) | 15 (≈ 0.0518 µM) | 9 (≈ 0.0311 µM)
8 | CC(C)(CN1CCCC1)Nc1ccnc2cc(Cl)ccc12 [Example 13, (7-Chloro-quinolin-4-yl)-(1,1-dimethyl-2-pyrrolidin-1-yl-ethyl)-amine] | 30 (≈ 0.0987 µM) | 28 (≈ 0.0922 µM) | 38 (≈ 0.125 µM) | 27 (≈ 0.0889 µM) | 30 (≈ 0.0987 µM) | 58 (≈ 0.191 µM) | 25 (≈ 0.0823 µM) | 40 (≈ 0.132 µM) | 47 (≈ 0.155 µM) | 34 (≈ 0.112 µM) | 39 (≈ 0.128 µM) | 41 (≈ 0.135 µM)
